Laboratory results reported in ChEMBL document CHEMBL6177953, “Discovery of a novel quinoxaline derivative modulator via a dual P53/TLR2 targeting strategy for the alleviation of radiation damage” (Eur J Med Chem, 2025).
Activity calls are given as the source filed them. The calls are words filed in the database; no cut-off is given here.

Key:
AHH-1 [1] = assay: Antiradiation activity in human AHH-1 cells assessed as increase in cell viability at 2.5 to 10 micromol/L pre-treated with compound for 24 hrs followed by irradiation at 4 Gy measured after 24 hrs by CCK-8 assay; type: functional, cell-based; conditions: dose 2.5-10 µmol/L, time 48.0 hrs
AHH-1 [2] = assay: Antiradiation activity in human AHH-1 cells assessed as increase in cell viability at 2.5 to 10 micromol/L pre-treated with compound for 24 hrs followed by irradiation at 6 Gy measured after 24 hrs by CCK-8 assay; type: functional, cell-based; conditions: dose 2.5-10 µmol/L, time 48.0 hrs
[3] = Cytotoxicity against HUVEC incubated for 24 to 96 hrs by CCK-8 assay; type: toxicity, cell-based; conditions: human, HUVEC cells
Mus musculus [4] = assay: Radioprotective activity in male C57BL/6J mouse assessed as survival rate at 250 mg/kg, ip pre-treated with compound for 24.25 hrs followed by irradiation at 8.5 Gy and measured for 30 days post irradiation relative to control; type: functional; conditions: time 744.25 hrs
AHH-1 [5] = assay: Antiradiation activity in human AHH-1 cells assessed as increase in cell viability at 2.5 to 10 micromol/L pre-treated with compound for 24 hrs followed by irradiation at 8 Gy measured after 24 hrs by CCK-8 assay; type: functional, cell-based; conditions: dose 2.5-10 µmol/L, time 48.0 hrs
HUVEC [6] = assay: Antiradiation activity in human HUVEC assessed as cell viability at 5 to 20 micromol/L pre-treated with compound for 24 hrs followed by irradiation at 6 Gy measured after 96 hrs by CCK-8 assay; type: functional, cell-based; conditions: dose 5-20 µmol/L, time 120.0 hrs
Mus musculus [7] = assay: Radioprotective activity in male C57BL/6J mouse assessed as increase in body weight at 100 to 300 mg/kg, ip pre-treated with compound for 24.25 hrs followed by irradiation at 8.5 Gy and measured on day 18 post irradiation; type: functional, organism-based; conditions: dose 100-300 mg/kg, time 456.25 hrs
AHH-1 [8] = assay: Cytotoxicity against human AHH-1 cells incubated for 24 to 96 hrs by CCK-8 assay; type: functional, cell-based
HUVEC [9] = assay: Antiradiation activity in human HUVEC assessed as cell viability at 5 to 20 micromol/L pre-treated with compound for 24 hrs followed by irradiation at 8 Gy measured after 96 hrs by CCK-8 assay; type: functional, cell-based; conditions: dose 5-20 µmol/L, time 120.0 hrs
AHH-1 [10] = assay: Induction of apoptosis in human AHH-1 cells assessed as viable cells pre-treated with compound for 24 hrs followed by irradiation at 6 Gy and measured after 24 hrs by Annexin V-FITC/PI staining based Flow cytometry analysis (reference value: 83.6%); type: functional; conditions: time 48 hrs
AHH-1 [11] = assay: Induction of apoptosis in human AHH-1 cells assessed as necrotic cells pre-treated with compound for 24 hrs followed by irradiation at 6 Gy and measured after 24 hrs by Annexin V-FITC/PI staining based Flow cytometry analysis (reference value: 5.37%); type: functional; conditions: time 48 hrs
AHH-1 [12] = assay: Induction of apoptosis in human AHH-1 cells assessed as early apoptotic cells pre-treated with compound for 24 hrs followed by irradiation at 6 Gy and measured after 24 hrs by Annexin V-FITC/PI staining based Flow cytometry analysis (reference value: 8.15%); type: functional; conditions: time 48 hrs
Mus musculus [13] = assay: Radioprotective activity in male C57BL/6J mouse assessed as survival rate at 300 mg/kg, ip pre-treated with compound for 24.25 hrs followed by irradiation at 8.5 Gy and measured for 30 days post irradiation relative to control; type: functional; conditions: time 744.25 hrs
Mus musculus [14] = assay: Radioprotective activity in male C57BL/6J mouse assessed as increase in cell growth at 250 to 300 mg/kg, ip pre-treated with compound for 24.25 hrs followed by irradiation at 6.5 Gy and measured on 30 day post irradiation; type: functional, organism-based; conditions: dose 250-300 mg/kg, time 744.25 hrs
AHH-1 [15] = assay: Induction of apoptosis in human AHH-1 cells assessed as late apoptotic cells pre-treated with compound for 24 hrs followed by irradiation at 6 Gy and measured after 24 hrs by Annexin V-FITC/PI staining based Flow cytometry analysis (reference value: 2.65%); type: functional; conditions: time 48 hrs
Mus musculus [16] = assay: Radioprotective activity in male C57BL/6J mouse assessed as survival rate at 100 mg/kg, ip pre-treated with compound for 24.25 hrs followed by irradiation at 8.5 Gy and measured for 30 days post irradiation relative to control; type: functional; conditions: time 744.25 hrs

In the case of `Cc1ccc(CS(=O)(=O)c2cnc3ccccc3n2)cc1`, the Activity (AHH-1 [1]) is reported as “Active”, the Activity (AHH-1 [2]) is reported as “Active” and the IC50 [3] is reported as 56.1 µM. The Activity (Mus musculus [4]) was 80%, the Activity (AHH-1 [5]) was “Active” and the Activity (HUVEC [6]) was “Active”. For the same compound, the Activity (Mus musculus [7]) was “Active”, the IC50 (AHH-1 [8]) was 36.5 µM and the Activity (HUVEC [9]) was “Active”.
In the case of `O=C([O-])c1ccc(/C=C/S(=O)(=O)Cc2ccc(Cl)cc2)cc1.[Na+]` [RECILISIB SODIUM], the Activity (AHH-1 [10]) is reported as 66.6%, the Activity (AHH-1 [1]) is reported as “Active” and the Activity (AHH-1 [2]) is reported as “Active”. The IC50 [3] was > 60 µM, the Activity (AHH-1 [11]) was 5.5% and the Activity (AHH-1 [12]) was 19.2%. For the same compound, the Activity (AHH-1 [5]) was “Active”, the Activity (Mus musculus [13]) was 20% and the Activity (Mus musculus [7]) was “Active”. For the same compound, the Activity (Mus musculus [14]) was “Active”, the Activity (AHH-1 [15]) was 8.65% and the IC50 (AHH-1 [8]) was 39.6 µM.
For `COc1ccc(CSc2cnc3cc(Cl)ccc3n2)cc1`, the Activity (AHH-1 [1]) was “Active”, the Activity (AHH-1 [2]) was “Active” and the Activity (AHH-1 [5]) was “Active”. The IC50 (AHH-1 [8]) was > 60 µM.
With `Fc1ccc(CSc2cnc3cc(Br)ccc3n2)cc1` the Activity (AHH-1 [1]) was “Active”, the Activity (AHH-1 [2]) was “Active” and the Activity (AHH-1 [5]) was “Active”. For the same compound, the IC50 (AHH-1 [8]) was 22.2 µM.
In the case of `N#Cc1ccc(CSc2cnc3cc(Cl)ccc3n2)cc1`, the Activity (AHH-1 [1]) is reported as “Active”, the Activity (AHH-1 [2]) is reported as “Active” and the Activity (AHH-1 [5]) is reported as “Active”. The IC50 (AHH-1 [8]) was > 60 µM.
In the case of `Cc1ccc(CSc2cnc3cc(Cl)ccc3n2)cc1`, the Activity (AHH-1 [1]) is reported as “Active”, the Activity (AHH-1 [2]) is reported as “Active” and the Activity (AHH-1 [5]) is reported as “Active”. The IC50 (AHH-1 [8]) was > 60 µM.
In the case of `O=C(O)c1ccc(CS(=O)(=O)c2cnc3cc(Cl)ccc3n2)cc1`, the Activity (AHH-1 [1]) is reported as “Active”, the Activity (Mus musculus [16]) is reported as 50% and the Activity (AHH-1 [2]) is reported as “Active”. The IC50 [3] was > 60 µM, the Activity (AHH-1 [5]) was “Active” and the Activity (Mus musculus [7]) was “Active”. For the same compound, the IC50 (AHH-1 [8]) was 22.4 µM.
In the case of `O=S(=O)(Cc1ccc(F)cc1)c1cnc2cc(Cl)ccc2n1`, the Activity (AHH-1 [1]) is reported as “Active”, the Activity (AHH-1 [2]) is reported as “Active” and the Activity (AHH-1 [5]) is reported as “Active”. The IC50 (AHH-1 [8]) was 6.32 µM.
With `N#Cc1ccc(CS(=O)(=O)c2cnc3cc(Cl)ccc3n2)cc1` the Activity (AHH-1 [1]) was “Active”, the Activity (AHH-1 [2]) was “Active” and the Activity (AHH-1 [5]) was “Active”. The IC50 (AHH-1 [8]) was 4.8 µM.
For `O=C(O)c1ccc(CSc2cnc3ccccc3n2)cc1`, the Activity (AHH-1 [1]) was “Active”, the Activity (AHH-1 [2]) was “Active” and the Activity (AHH-1 [5]) was “Active”. For the same compound, the IC50 (AHH-1 [8]) was > 60 µM.
For `Clc1ccc2nc(SCc3ccccc3)cnc2c1`, the Activity (AHH-1 [1]) was “Active”, the Activity (AHH-1 [2]) was “Active” and the Activity (AHH-1 [5]) was “Active”. The IC50 (AHH-1 [8]) was > 60 µM.
